The NIST ThermoML archive (doi:10.1021/je300175w)
Where “and” joins values, the source holds several entries; their conditions need not be identical. Identical values can stand only once. ± gives the expanded uncertainty stated by the source.

Assay: mn = molality of the nth substance listed, in mol/kg
Conditions: 101 kPa, Liquid, Sing-around technique in a fixed-path interferometer

CC(C)(C)CO [2,2-dimethyl-1-propanol] + O
speed of sound
Conditions | 278.15 K | 283.15 K | 288.15 K | 293.15 K | 298.15 K | 308.15 K | 318.15 K
m1 = 0.0485 | 1430.2 ± 0.72 m/s | 1452.5 ± 0.73 m/s | 1470.7 ± 0.74 m/s | 1486.8 ± 0.74 m/s | 1500.7 ± 0.75 m/s | 1523.3 ± 0.75 m/s and 1523.1 ± 0.75 m/s | 1539.1 ± 0.76 m/s and 1539.2 ± 0.76 m/s
m1 = 0.09995 | 1434.4 ± 0.72 m/s | 1457.9 ± 0.73 m/s and 1458 ± 0.73 m/s | 1475.7 ± 0.74 m/s | 1491.3 ± 0.74 m/s | 1504.9 ± 0.75 m/s | 1526.6 ± 0.75 m/s and 1526.4 ± 0.75 m/s | 1541.8 ± 0.76 m/s
m1 = 0.1472 | 1438.2 ± 0.73 m/s and 1438.1 ± 0.73 m/s | 1463 ± 0.73 m/s and 1462.9 ± 0.73 m/s | 1480.2 ± 0.74 m/s | 1495.5 ± 0.74 m/s | 1508.7 ± 0.75 m/s | 1529.7 ± 0.76 m/s and 1529.5 ± 0.76 m/s | 1544.3 ± 0.76 m/s and 1544.2 ± 0.76 m/s
m1 = 0.1999 | 1442.3 ± 0.73 m/s | 1468.5 ± 0.74 m/s and 1468.4 ± 0.74 m/s | 1485.2 ± 0.74 m/s | 1500 ± 0.75 m/s | 1512.8 ± 0.75 m/s | 1532.9 ± 0.76 m/s | 1546.9 ± 0.76 m/s

CCC(CO)(CO)CO [2-ethyl-2-(hydroxymethyl)-1,3-propanediol] + O
speed of sound
Conditions | 278.15 K | 283.15 K | 288.15 K | 293.15 K | 298.15 K | 308.15 K | 318.15 K
m1 = 0.09974 | 1436 ± 0.72 m/s and 1436.1 ± 0.72 m/s | 1456.4 ± 0.73 m/s and 1456.5 ± 0.73 m/s | 1474.5 ± 0.74 m/s | 1490.3 ± 0.74 m/s | 1504.1 ± 0.75 m/s | 1526.5 ± 0.76 m/s and 1526.2 ± 0.76 m/s | 1542.2 ± 0.76 m/s and 1542 ± 0.76 m/s
m1 = 0.1998 | 1445.7 ± 0.73 m/s | 1465.3 ± 0.74 m/s and 1465.4 ± 0.74 m/s | 1482.8 ± 0.74 m/s | 1498 ± 0.75 m/s | 1511.3 ± 0.75 m/s | 1532.7 ± 0.76 m/s and 1532.4 ± 0.76 m/s | 1547.6 ± 0.76 m/s and 1547.4 ± 0.76 m/s
m1 = 0.3 | 1455.1 ± 0.74 m/s | 1474.1 ± 0.74 m/s | 1490.9 ± 0.75 m/s | 1505.6 ± 0.75 m/s | 1518.3 ± 0.76 m/s | 1538.9 ± 0.76 m/s and 1538.5 ± 0.76 m/s | 1552.8 ± 0.77 m/s and 1552.7 ± 0.77 m/s
m1 = 0.3961 | 1464 ± 0.74 m/s | 1482.3 ± 0.75 m/s and 1482.4 ± 0.75 m/s | 1498.5 ± 0.75 m/s | 1512.7 ± 0.76 m/s | 1524.9 ± 0.76 m/s | 1544.6 ± 0.77 m/s and 1544.3 ± 0.77 m/s | 1557.4 ± 0.77 m/s and 1557.6 ± 0.77 m/s
m1 = 0.5048 | 1473.8 ± 0.75 m/s | 1491.4 ± 0.75 m/s | 1507 ± 0.76 m/s | 1520.5 ± 0.76 m/s | 1532.2 ± 0.77 m/s | 1550.9 ± 0.77 m/s and 1550.5 ± 0.77 m/s | 1562.8 ± 0.78 m/s and 1563 ± 0.78 m/s

CC(CO)CO [2-methyl-1,3-propanediol] + O
speed of sound
Conditions | 278.15 K | 283.15 K | 288.15 K | 293.15 K | 298.15 K | 308.15 K | 318.15 K
m1 = 0.1097 | 1434 ± 0.72 m/s | 1454.5 ± 0.73 m/s and 1454.4 ± 0.73 m/s | 1472.6 ± 0.74 m/s | 1488.5 ± 0.74 m/s | 1502.3 ± 0.75 m/s and 1502.4 ± 0.75 m/s | 1524.7 ± 0.75 m/s | 1540.4 ± 0.76 m/s and 1540.6 ± 0.76 m/s
m1 = 0.1997 | 1440.3 ± 0.73 m/s and 1440.4 ± 0.73 m/s | 1460.3 ± 0.73 m/s | 1477.9 ± 0.74 m/s and 1478 ± 0.74 m/s | 1493.4 ± 0.74 m/s | 1506.9 ± 0.75 m/s | 1528.6 ± 0.76 m/s | 1543.8 ± 0.76 m/s and 1544 ± 0.76 m/s
m1 = 0.3091 | 1448 ± 0.73 m/s | 1467.3 ± 0.74 m/s | 1484.4 ± 0.74 m/s | 1499.4 ± 0.75 m/s | 1512.4 ± 0.75 m/s | 1533.6 ± 0.76 m/s and 1533.3 ± 0.76 m/s | 1547.8 ± 0.77 m/s and 1548 ± 0.77 m/s
m1 = 0.3983 | 1454.1 ± 0.73 m/s | 1472.9 ± 0.74 m/s and 1473 ± 0.74 m/s | 1489.6 ± 0.75 m/s | 1504.1 ± 0.75 m/s and 1504.2 ± 0.75 m/s | 1516.8 ± 0.76 m/s | 1537.3 ± 0.76 m/s and 1537 ± 0.76 m/s | 1551.1 ± 0.77 m/s and 1551.2 ± 0.77 m/s

CCC(CO)(CO)COCC(CC)(CO)CO [3,3,7,7-tetrakis(hydroxymethyl)-5-oxanonane] + O
speed of sound
Conditions | 278.15 K | 283.15 K | 288.15 K | 293.15 K | 298.15 K | 308.15 K | 318.15 K
m1 = 0.01972 | 1429.8 ± 0.72 m/s | 1450.6 ± 0.73 m/s | 1469 ± 0.73 m/s | 1485.2 ± 0.74 m/s | 1499.3 ± 0.74 m/s | 1522.2 ± 0.75 m/s and 1522 ± 0.75 m/s | 1538.2 ± 0.76 m/s and 1538.3 ± 0.76 m/s
m1 = 0.04105 | 1433.6 ± 0.72 m/s and 1433.7 ± 0.72 m/s | 1454.1 ± 0.73 m/s | 1472.3 ± 0.74 m/s | 1488.2 ± 0.74 m/s | 1502.1 ± 0.75 m/s | 1524.5 ± 0.75 m/s and 1524.3 ± 0.75 m/s | 1540.2 ± 0.76 m/s and 1540.3 ± 0.76 m/s
m1 = 0.06045 | 1437.1 ± 0.73 m/s | 1457.3 ± 0.73 m/s | 1475.2 ± 0.74 m/s | 1490.9 ± 0.74 m/s | 1504.6 ± 0.75 m/s | 1526.6 ± 0.76 m/s and 1526.4 ± 0.76 m/s | 1542 ± 0.76 m/s and 1542.1 ± 0.76 m/s
m1 = 0.079 | 1440.3 ± 0.73 m/s | 1460.3 ± 0.73 m/s | 1478 ± 0.74 m/s | 1493.4 ± 0.74 m/s | 1506.9 ± 0.75 m/s | 1528.6 ± 0.76 m/s and 1528.4 ± 0.76 m/s | 1543.7 ± 0.76 m/s and 1543.8 ± 0.76 m/s
